Counter-ions that a name gives are not always drawn. Where only a bound is given, the exact number is not on record here.

Data on 32 compounds can be found in US20180186755A1, “LYSYL OXIDASE-LIKE 2 INHIBITORS AND USES THEREOF” (PharmAkea, Inc., priority 2015, published 2018).

For the experiment, the target named is T1, human LOXL2 (Homo sapiens, UniProt Q9Y4K0).
T1 construct: expressed in transfected cells; 10-20x concentrated conditioned media used as the enzyme source
T1 sequence (Q9Y4K0 26-774): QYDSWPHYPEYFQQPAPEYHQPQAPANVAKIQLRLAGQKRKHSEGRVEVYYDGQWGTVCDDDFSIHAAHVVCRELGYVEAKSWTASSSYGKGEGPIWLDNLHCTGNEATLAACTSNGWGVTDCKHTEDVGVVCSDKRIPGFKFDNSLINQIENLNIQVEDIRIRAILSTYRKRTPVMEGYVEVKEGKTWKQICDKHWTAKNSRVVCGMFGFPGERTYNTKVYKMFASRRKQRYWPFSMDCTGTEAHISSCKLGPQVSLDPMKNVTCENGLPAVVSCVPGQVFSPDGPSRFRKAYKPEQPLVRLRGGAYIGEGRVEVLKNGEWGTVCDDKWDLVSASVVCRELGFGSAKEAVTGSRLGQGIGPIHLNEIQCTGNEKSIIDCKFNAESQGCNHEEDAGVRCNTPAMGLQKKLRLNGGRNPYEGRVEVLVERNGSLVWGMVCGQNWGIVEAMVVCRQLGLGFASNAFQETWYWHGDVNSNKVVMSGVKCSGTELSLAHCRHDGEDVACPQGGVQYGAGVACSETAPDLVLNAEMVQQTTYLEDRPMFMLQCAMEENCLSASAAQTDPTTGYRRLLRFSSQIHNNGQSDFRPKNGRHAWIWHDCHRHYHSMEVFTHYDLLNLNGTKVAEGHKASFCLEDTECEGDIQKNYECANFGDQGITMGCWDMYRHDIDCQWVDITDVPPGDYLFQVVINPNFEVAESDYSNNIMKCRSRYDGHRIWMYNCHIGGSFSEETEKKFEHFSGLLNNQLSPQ
Briefly: Human LOXL2 amine oxidase activity assay (Amplex Red fluorescence). Type of experiment: biochemical. The following applies: concentrated conditioned media from CHO cells stably expressing human LOXL2; 2 h at 37° C. preincubation; DAP substrate. The procedure:
Example B-1: Human LOXL2 Amine Oxidase Activity Assay
LOXL2 amine oxidase activity is evaluated by measuring Amplex Red fluorescence using 10-20× concentrated conditioned media from CHO cells stably expressing human LOXL2.
To assay for amine oxidase activity, 10 μL of the concentrated conditioned media is incubated with 2 μL of test compound in DMSO and 73 μL Assay Buffer (50 mM Borate Buffer, pH8) for 2 h at 37° C. After the 2 h incubation, 5 ul of 10 mM 1,5-Diaminopentane (DAP) diluted in Assay Buffer and 10 μl of Amplex Red Mix (8.5 μl Assay Buffer+0.5 μl of 10 mM Amplex Red+1 μl of 500 U/ml Horseradish Peroxidase) are added and the plate mixed and immediately placed on the FlexStaion for fluorescence measurements. Fluorescence is read in kinetic mode every 2 min for 1 hour at excitation=544 and emission=590. The amine oxidase activity is calculated from the slope of the linear portion of the curve.
For the compound `NCc1cc(Oc2cccc(C(=O)N3C[C@@H](O)[C@H](F)C3)c2)ncn1` (racemic) [Compound 1-11, Racemic-trans-(3-((6-(aminomethyl)pyrimidin-4-yl)oxy)phenyl)(3-fluoro-4-hydroxypyrrolidin-1-yl)methanone hydrochloride], the half-inhibitory concentration (IC50) (as a rule, the midpoint of a concentration-inhibition curve) was less than 0.1 µM.
Then `CS(=O)(=O)CCNC(=O)c1cccc(COc2cc(CN)ncn2)c1` [Compound 1-37, 3-(((6-(Aminomethyl)pyrimidin-4-yl)oxy)methyl)-N-(2-(methylsulfonyl)ethyl)benzamide], with less than 0.1 µM; and `NCc1cc(Oc2cccc(C(=O)Nc3ccccc3)c2)ncn1` [Compound 1-3, 3-((6-(Aminomethyl)pyrimidin-4-yl)oxy)-N-phenylbenzamide hydrochloride], with less than 0.1 µM.
In turn, `NCc1cc(Oc2cccc(C(=O)NCCC(=O)O)c2)ncn1` [Compound 1-7, 3-(3-((6-(Aminomethyl)pyrimidin-4-yl)oxy)benzamido)propanoic Acid Hydrochloride] yielded an IC50 of 0.1 to 1 µM.
Turning to `NCc1cc(Oc2cccc(C(=O)N[C@@H](CO)c3ccccc3)c2)ncn1` [Compound 1-57, (R)-3-((6-(Aminomethyl)pyrimidin-4-yl)oxy)-N-(2-hydroxy-1-phenylethyl)benzamide], the IC50 was less than 0.1 µM.
Then `NCc1cc(Oc2cccc3c2CCC(=O)N3)ncn1` [Compound 1-101, 5-((6-(Aminomethyl)pyrimidin-4-yl)oxy)-3,4-dihydroquinolin-2(1H)-one], with less than 0.1 µM.
The compound `NCc1cc(Oc2cccc(C(=O)NCc3ccccc3)c2)ncn1` [Compound 1-56, 3-((6-(Aminomethyl)pyrimidin-4-yl)oxy)-N-benzylbenzamide] returned an IC50 of less than 0.1 µM.
In the case of `NCc1cc(NCc2cccc(C(=O)Nc3ccc(C(=O)O)cc3)c2)ncn1` [Compound 1-44, 4-(3-(((6-(Aminomethyl)pyrimidin-4-yl)amino)methyl)benzamido)benzoic acid], the IC50 lay within 0.1 to 1 µM.
In the case of `NCc1cc(OCc2cccc(C(=O)N3CCc4c([nH]c5ncccc45)C3)c2)ncn1` [Compound 1-90, (3-(((6-(Aminomethyl)pyrimidin-4-yl)oxy)methyl)phenyl)(5H-pyrrolo[2,3-b:5,4-c′]dipyridin-7(6H,8H,9H)-yl)methanone] it was less than 0.1 µM.
For `CC(Oc1cc(CN)ncn1)c1cccc(C(=O)Nc2ccccc2)c1` (racemic) [Compound 1-95, Racemic-3-(1-((6-(aminomethyl)pyrimidin-4-yl)oxy)ethyl)-N-phenylbenzamide], the IC50 lay in the range of 0.1 to 1 µM.
In the case of `NCc1cc(Oc2cccc3c2ccn3CCO)ncn1` [Compound 1-48, 2-(4-((6-(Aminomethyl)pyrimidin-4-yl)oxy)-1H-indol-1-yl)ethan-1-ol] it was less than 0.1 µM; in that of `CN(C)C(=O)c1cccc(COc2cc(CN)ncn2)c1` [Compound 1-33, 3-(((6-(Aminomethyl)pyrimidin-4-yl)oxy)methyl)-N,N-dimethylbenzamide], less than 0.1 µM.
Take `NCc1cc(Oc2cccc(C(=O)NCc3sc4ccccc4c3Cl)c2)ncn1` [Compound 1-64, 3-((6-(Aminomethyl)pyrimidin-4-yl)oxy)-N-((3-chlorobenzo[b]thiophen-2-yl)methyl)benzamide]: the IC50 was less than 0.1 µM.
Then `NCc1cc(Oc2cccc(C(=O)N3CCc4ccc(Cl)cc43)c2)ncn1` [Compound 1-50, (3-((6-(Aminomethyl)pyrimidin-4-yl)oxy)phenyl)(6-chloroindolin-1-yl)methanone], with less than 0.1 µM.
Then `NCc1cc(OCc2cccc(C(=O)NCc3cc4cc(F)ccc4s3)c2)ncn1` [Compound 1-82, 3-(((6-(Aminomethyl)pyrimidin-4-yl)oxy)methyl)-N-((5-fluorobenzo[b]thiophen-2-yl)methyl)benzamide], with less than 0.1 µM; and `NCc1cc(Oc2cccc(C(=O)N3CCc4cccnc43)c2)ncn1` [Compound 1-51, (3-((6-(Aminomethyl)pyrimidin-4-yl)oxy)phenyl)(2,3-dihydro-H-pyrrolo[2,3-b]pyridin-1-yl)methanone, hydrochloride], with less than 0.1 µM; and `NCc1cc(N2CCN(C(=O)c3ccccc3)CC2)ncn1` [Compound 1-104, (4-(6-(Aminomethyl)pyrimidin-4-yl)piperazin-1-yl)(phenyl)methanone], with greater than 1 µM.
Consider `NCc1cc(Oc2cccc(C(=O)N3CCc4c([nH]c5ncccc45)C3)c2)ncn1` [Compound 1-71, (3-((6-(Aminomethyl)pyrimidin-4-yl)oxy)phenyl)(5H-pyrrolo[2,3-b:5,4-c′]dipyridin-7(6H,8H,9H)-yl)methanone], for which the IC50 was less than 0.1 µM.
Then `NCc1cc(Oc2cccc3c2ccn3C2COC2)ncn1` [Compound 1-49, (6-((1-(Oxetan-3-yl)-1H-indol-4-yl)oxy)pyrimidin-4-yl)methanamine], with 0.1 to 1 µM; and `NCc1cc(NCc2cccc(C(=O)N3CCN(c4ccccc4)CC3)c2)ncn1` [Compound 1-100, (3-(((6-(Aminomethyl)pyrimidin-4-yl)amino)methyl)phenyl)(4-phenylpiperazin-1-yl)methanone], with 0.1 to 1 µM; and `NCc1cc(Oc2cccc(C(=O)N3CCN(c4ncc(Cl)cc4Cl)CC3)c2)ncn1` [Compound 1-73, (3-((6-(Aminomethyl)pyrimidin-4-yl)oxy)phenyl)(4-(3,5-dichloropyridin-2-yl)piperazin-1-yl)methanone], with less than 0.1 µM.
Then `NCc1cc(Oc2cccc(C(=O)NCCCC(=O)O)c2)ncn1` [Compound 1-8, 4-(3-((6-(Aminomethyl)pyrimidin-4-yl)oxy)benzamido)butanoic Acid Hydrochloride], with 0.1 to 1 µM; and `CS(=O)(=O)CCN1C(=O)CCc2c(Oc3cc(CN)ncn3)cccc21` [Compound 1-47, 5-((6-(Aminomethyl)pyrimidin-4-yl)oxy)-1-(2-(methylsulfonyl)ethyl)-3,4-dihydroquinolin-2(1H)-one], with less than 0.1 µM.
Then `NCc1cc(Oc2cccc(C(=O)NCc3ccc(-c4ccc(F)cc4)cc3)c2)ncn1` [Compound 1-62, 3-((6-(Aminomethyl)pyrimidin-4-yl)oxy)-N-((4′-fluoro-[1,1′-biphenyl]-4-yl)methyl)benzamide], with less than 0.1 µM; and `NCc1cc(Oc2cccc(C(=O)NCc3cccnc3)c2)ncn1` [Compound 1-54, 3-((6-(Aminomethyl)pyrimidin-4-yl)oxy)-N-(pyridin-3-ylmethyl)benzamide], with less than 0.1 µM.
Compound `NCc1cc(Oc2ccc3[nH]ccc3c2)ncn1` [Compound 1-18, (6-((1H-Indol-5-yl)oxy)pyrimidin-4-yl)methanamine trifluoroacetate] registered a concentration for half-maximal inhibition (IC50) of less than 0.1 µM.
In the case of `COc1ccc(Cn2c(C)cc3c(Oc4cc(CN)ncn4)cccc32)cn1` [Compound 1-30, (6-((1-((6-Methoxypyridin-3-yl)methyl)-2-methyl-1H-indol-4-yl)oxy)pyrimidin-4-yl)methanamine] it was less than 0.1 µM; in that of `Cn1cc(-n2ccc3c(Oc4cc(CN)ncn4)cccc32)cn1` [Compound 1-32, (6-((1-(1-Methyl-1H-pyrazol-4-yl)-1H-indol-4-yl)oxy)pyrimidin-4-yl)methanamine], less than 0.1 µM; in that of `NCc1cc(OCc2cccc(C(=O)NCc3cc4cccnc4[nH]3)c2)ncn1` [Compound 1-87, N-((1H-pyrrolo[2,3-b]pyridin-2-yl)methyl)-3-(((6-(aminomethyl)pyrimidin-4-yl)oxy)methyl)benzamide], less than 0.1 µM.
Then `COc1ccc(Cn2cc(C)c3c(Oc4cc(CN)ncn4)cccc32)cn1` [Compound 1-31, (6-((1-((6-Methoxypyridin-3-yl)methyl)-3-methyl-1H-indol-4-yl)oxy)pyrimidin-4-yl)methanamine], with less than 0.1 µM; and `NCc1cc(OCc2cccc(C(=O)NCc3cccnc3)c2)ncn1` [Compound 1-79, 3-(((6-(Aminomethyl)pyrimidin-4-yl)oxy)methyl)-N-(pyridin-3-ylmethyl)benzamide], with less than 0.1 µM; and `NCc1cc(Oc2cccc(C(=O)N3CCC(O)(C(F)(F)F)CC3)c2)ncn1` [Compound 1-74, (3-((6-(Aminomethyl)pyrimidin-4-yl)oxy)phenyl)(4-hydroxy-4-(trifluoromethyl)piperidin-1-yl)methanone], with less than 0.1 µM.
